Measurements as given in patent US20260242419A1, “A CYCLIC PEPTIDE FOR TRAPPING INTERLEUKIN-1 BETA” (Merck Sharp & Dohme LLC, priority 2023, published 2026).
Starred links: 1 amine or outer side, 2 acyl side, 3 side chain; linkers in the order of their positions; H or OH if unused. Non-standard residues stand in square brackets, D forms with d. Residues, ends and D or L forms follow the SMILES beside them. Trp(βS-Me,4-F) = C[C@@H](c1c[nH]c2cccc(F)c12)[C@H](N)C(=O)O; Bip(4'-COOH) = N[C@@H](Cc1ccc(-c2ccc(C(=O)O)cc2)cc1)C(=O)O; X4 = O=C([C@H]1[C@@H](Cc2ccncc2)CCN1[*:1])[*:2]; Ala(pyrimidin-5-yl) = N[C@@H](Cc1cncnc1)C(=O)O; Phe(4-COOH) = N[C@@H](Cc1ccc(C(=O)O)cc1)C(=O)O; Nva(5,5,5-F3) = N[C@@H](CCC(F)(F)F)C(=O)O; Pro(cis-4-F) = O=C(O)[C@@H]1C[C@H](F)CN1; X46 = O=C([C@@H](Cc1cncnc1)N[*:1])[*:2]; d(αMeD) = C[C@@](N)(CC(=O)O)C(=O)O; 4Pal = N[C@@H](Cc1ccncc1)C(=O)O; NMeDab = CN[C@@H](CCN)C(=O)O; Dab = NCC[C@H](N)C(=O)O; Nva = CCC[C@H](N)C(=O)O; Aib = CC(C)(N)C(=O)O

biological target: T1, IL-1β (Homo sapiens, UniProt P01584); assay: IL-6 assay in MRC5 cells: inhibition of IL-1β induced IL-6 secretion (AlphaLISA); type: cell-based; conditions: inhibition of IL-1β induced IL-6 secretion in MRC5 cells; compound pre-incubated 1 hour with recombinant human IL-1β; read-out: MRC5 IC50
T1 construct: purchased BioLegend 579404
T1 sequence (P01584 117-269): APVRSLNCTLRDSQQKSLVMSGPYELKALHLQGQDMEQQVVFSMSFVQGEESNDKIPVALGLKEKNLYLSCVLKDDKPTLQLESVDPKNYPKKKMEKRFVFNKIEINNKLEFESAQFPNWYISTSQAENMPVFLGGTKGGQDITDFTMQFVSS
In short: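 Compound was pre-incubated 1 h at ambient temperature with recombinant human IL-1β at 2λ EC80 before adding human lung fibroblast MRC5 cells (3000/well) in EMEM with 0.025% BSA. After overnight culture at 37 °C, 5% CO2, secreted IL-6 in conditioned medium was measured by AlphaLISA; IC50 from 4-parameter logistic fits.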

| IC50 [nM] | Structure (SMILES) |
| --- | --- |
| 0.03 | C[C@@H](c1c[nH]c2cccc(F)c12)[C@@H]1NC(=O)[C@@H]2C[C@H](F)CN2C(=O)CNC(=O)[C@H](Cc2ccc(C(=O)O)cc2)NC(=O)[C@H](Cc2ccncc2)NC(=O)[C@H](Cc2ccc(-c3ccc(C(=O)O)cc3)cc2)NC(=O)[C@H]2[C@@H](Cc3ccncc3)CCN2C(=O)CNC(=O)[C@H](CCN)NC(=O)[C@H](CCC(N)=O)NC(=O)[C@@H](Cc2cncnc2)NC(=O)C(C)(C)NC(=O)[C@H](Cc2c[nH]c3ccccc23)NC(=O)[C@H](CO)NC(=O)C(C)(C)NC1=O [Example 233] (cyclo([Bip(4'-COOH)][4Pal][Phe(4-COOH)]G[Pro(cis-4-F)][Trp(βS-Me,4-F)][Aib]SW[Aib][X46]Q[Dab]G[X4])) |
| 0.024 | C[C@@H](c1c[nH]c2cccc(F)c12)[C@@H]1NC(=O)[C@@H]2C[C@H](F)CN2C(=O)CNC(=O)[C@H](Cc2ccc(C(=O)O)cc2)NC(=O)[C@H](Cc2ccncc2)NC(=O)[C@H](Cc2ccc(-c3ccc(C(=O)O)cc3)cc2)NC(=O)[C@H]2[C@@H](Cc3ccncc3)CCN2C(=O)CNC(=O)[C@H](CCN)NC(=O)[C@H](CCC(N)=O)NC(=O)[C@@H](CC(=O)O)NC(=O)C(C)(C)NC(=O)[C@H](Cc2c[nH]c3ccccc23)NC(=O)[C@H](CO)NC(=O)C(C)(C)NC1=O [Example 234] (cyclo([Bip(4'-COOH)][4Pal][Phe(4-COOH)]G[Pro(cis-4-F)][Trp(βS-Me,4-F)][Aib]SW[Aib][dD]Q[Dab]G[X4])) |
| 0.018 | C[C@@H](c1c[nH]c2cccc(F)c12)[C@@H]1NC(=O)[C@@H]2C[C@H](F)CN2C(=O)CNC(=O)[C@H](Cc2ccc(C(=O)O)cc2)NC(=O)[C@H](Cc2ccncc2)NC(=O)[C@H](Cc2ccc(-c3ccc(C(=O)O)cc3)cc2)NC(=O)[C@H]2[C@@H](Cc3ccncc3)CCN2C(=O)CNC(=O)[C@H](CCN)N(C)C(=O)[C@H](CCC(N)=O)NC(=O)[C@H](Cc2cncnc2)NC(=O)[C@@](C)(CC(=O)O)NC(=O)[C@H](Cc2c[nH]c3ccccc23)NC(=O)[C@H](CO)NC(=O)C(C)(C)NC1=O [Example 235] (cyclo([Bip(4'-COOH)][4Pal][Phe(4-COOH)]G[Pro(cis-4-F)][Trp(βS-Me,4-F)][Aib]SW[d(αMeD)][Ala(pyrimidin-5-yl)]Q[NMeDab]G[X4])) |

Continued, molecule first:

| Structure (SMILES) | IC50 [nM] |
| --- | --- |
| CCC[C@@H]1NC(=O)[C@@](C)(CC(=O)O)NC(=O)[C@H](Cc2c[nH]c3ccccc23)NC(=O)[C@H](CO)NC(=O)C(C)(C)NC(=O)[C@H]([C@@H](C)c2c[nH]c3cccc(F)c23)NC(=O)[C@@H]2C[C@H](F)CN2C(=O)CNC(=O)[C@H](Cc2ccc(C(=O)O)cc2)NC(=O)[C@H](Cc2ccncc2)NC(=O)[C@H](Cc2ccc(-c3ccc(C(=O)O)cc3)cc2)NC(=O)[C@H]2[C@@H](Cc3ccncc3)CCN2C(=O)CNC(=O)[C@H](CCN)NC(=O)[C@H](CCC(N)=O)NC1=O [Example 231] (cyclo([Bip(4'-COOH)][4Pal][Phe(4-COOH)]G[Pro(cis-4-F)][Trp(βS-Me,4-F)][Aib]SW[d(αMeD)][Nva]Q[Dab]G[X4])) | 0.027 |
| C[C@@H](c1c[nH]c2cccc(F)c12)[C@@H]1NC(=O)[C@@H]2C[C@H](F)CN2C(=O)CNC(=O)[C@H](Cc2ccc(C(=O)O)cc2)NC(=O)[C@H](Cc2ccncc2)NC(=O)[C@H](Cc2ccc(-c3ccc(C(=O)O)cc3)cc2)NC(=O)[C@H]2[C@@H](Cc3ccncc3)CCN2C(=O)CNC(=O)[C@H](CCN)NC(=O)[C@H](CCC(N)=O)NC(=O)[C@H](CCC(F)(F)F)NC(=O)[C@@](C)(CC(=O)O)NC(=O)[C@H](Cc2c[nH]c3ccccc23)NC(=O)[C@H](CO)NC(=O)C(C)(C)NC1=O [Example 232] (cyclo([Bip(4'-COOH)][4Pal][Phe(4-COOH)]G[Pro(cis-4-F)][Trp(βS-Me,4-F)][Aib]SW[d(αMeD)][Nva(5,5,5-F3)]Q[Dab]G[X4])) | 0.022 |
